Measured values as given in patent publication US8778871B2 (Takeda Pharmaceutical Company Limited, priority 2004, dated 2014).
Starred links: 1 amine or outer side, 2 acyl side, 3 side chain; linkers in the order of their positions; H or OH if unused. Non-standard residues stand in square brackets, D forms with d. Residues, ends and D or L forms follow the SMILES beside them. X8 = O=C([C@H](Cc1ccc2ccccc2n1)N[*:1])[*:2]; Arg(Me) = CNC(=N)NCCC[C@H](N)C(=O)O; Bta = N[C@@H](Cc1csc2ccccc12)C(=O)O; Cha = N[C@@H](CC1CCCCC1)C(=O)O; azaGly = NNC(=O)O

Biological target: T1, hOT7T175 (Homo sapiens, UniProt Q969F8, L364H)
T1 construct: expressed in transfected cells
Assay: Intracellular Ca ion level-increasing activity using FLIPR (180 seconds; specific activity to Metastin (1-54))
Assay type: cell-based
Conditions: hOT7T175/CHO, relative to Metastin (1-54) = 1

T1 sequence (Q969F8 whole entry L364H): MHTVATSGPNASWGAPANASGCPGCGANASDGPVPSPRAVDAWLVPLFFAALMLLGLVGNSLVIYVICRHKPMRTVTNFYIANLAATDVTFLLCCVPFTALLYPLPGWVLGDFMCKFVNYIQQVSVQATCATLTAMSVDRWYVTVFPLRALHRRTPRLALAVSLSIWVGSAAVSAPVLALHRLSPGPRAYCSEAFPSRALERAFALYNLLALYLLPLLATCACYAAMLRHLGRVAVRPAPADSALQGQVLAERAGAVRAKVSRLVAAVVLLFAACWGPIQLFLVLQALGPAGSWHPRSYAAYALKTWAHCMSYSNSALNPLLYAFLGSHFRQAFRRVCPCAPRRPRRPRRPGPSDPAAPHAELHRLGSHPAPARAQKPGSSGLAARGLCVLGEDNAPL

| SMILES | Specific Act. (intracellular Ca ion level-increasing activity, specific activity to Metastin (1-54)) |
| --- | --- |
| CNC(=N)NCCC[C@H](NC(=O)[C@H](CC(C)C)NC(=O)CNC(=O)[C@H](Cc1ccccc1)NC(=O)[C@H](CO)NC(=O)[C@H](CC(N)=O)NC(=O)[C@H](CO)NC(=O)[C@H](CC(N)=O)NC(=O)[C@H](N)Cc1ccc(O)cc1)C(=O)N[C@@H](Cc1ccccc1)C(N)=O [Compound No. 170] (H-[dY]NSNSFGL[Arg(Me)]F-NH2) | 1 |
| CNC(=N)NCCC[C@H](NC(=O)[C@H](CC(C)C)NC(=O)CNC(=O)[C@H](Cc1ccccc1)NC(=O)[C@H](CO)NC(=O)[C@H](CC(N)=O)NC(=O)[C@H](CC1CCCCC1)NC(=O)[C@H](CC(N)=O)NC(=O)[C@H](N)Cc1ccc(O)cc1)C(=O)N[C@@H](Cc1ccccc1)C(N)=O [Compound No. 171, D-Tyr-Asn-Cha-Asn-Ser-Phe-Gly-Leu-Arg(Me)-Phe-NH2] (H-[dY]N[Cha]NSFGL[Arg(Me)]F-NH2) | 10 |
| CNC(=N)NCCC[C@H](NC(=O)[C@H](CC(C)C)NC(=O)CNC(=O)[C@H](CC1CCCCC1)NC(=O)[C@H](CO)NC(=O)[C@H](CC(N)=O)NC(=O)[C@H](CC1CCCCC1)NC(=O)[C@H](CC(N)=O)NC(=O)[C@H](N)Cc1ccc(O)cc1)C(=O)N[C@@H](Cc1c[nH]c2ccccc12)C(N)=O [Compound No. 182, D-Tyr-Asn-Cha-Asn-Ser-Cha-Gly-Leu-Arg(Me)-Trp-NH2] (H-[dY]N[Cha]NS[Cha]GL[Arg(Me)]W-NH2) | 5 |
| CC(C)C[C@H](NC(=O)CNC(=O)[C@H](Cc1ccccc1)NC(=O)[C@H](CO)NC(=O)[C@H](CC(N)=O)NC(=O)[C@H](Cc1c[nH]c2ccccc12)NC(=O)[C@H](CC(N)=O)NC(=O)[C@@H](N)Cc1ccc(O)cc1)C(=O)N[C@@H](CCCNC(=N)N)C(=O)N[C@@H](Cc1csc2ccccc12)C(N)=O [Compound No. 189] (H-YNWNSFGLR[Bta]-NH2) | 10 |
| CNC(=N)NCCC[C@H](NC(=O)[C@H](CC(C)C)NC(=O)NNC(=O)[C@H](Cc1ccccc1)NC(=O)[C@H](CO)NC(=O)[C@H](CC(N)=O)NC(=O)[C@H](CC1CCCCC1)NC(=O)[C@H](CC(N)=O)NC(=O)[C@H](N)Cc1ccc(O)cc1)C(=O)N[C@@H](Cc1ccccc1)C(N)=O [Compound No. 190, D-Tyr-Asn-Cha-Asn-Ser-Phe-AzaGly-Leu-Arg(Me)-Phe-NH2] (H-[dY]N[Cha]NSF[azaGly]L[Arg(Me)]F-NH2) | 10 |
| CCNC(=N)NCCC[C@H](NC(=O)[C@H](CC(C)C)NC(=O)CNC(=O)[C@H](Cc1ccccc1)NC(=O)[C@H](CO)NC(=O)[C@H](CC(N)=O)NC(=O)[C@H](Cc1c[nH]c2ccccc12)NC(=O)[C@H](CC(N)=O)NC(=O)[C@H](N)Cc1ccc(O)cc1)C(=O)N[C@@H](Cc1ccccc1)C(N)=O [Compound No. 192] | 1 |
| CCCNC(=N)NCCC[C@H](NC(=O)[C@H](CC(C)C)NC(=O)CNC(=O)[C@H](Cc1ccccc1)NC(=O)[C@H](CO)NC(=O)[C@H](CC(N)=O)NC(=O)[C@H](Cc1c[nH]c2ccccc12)NC(=O)[C@H](CC(N)=O)NC(=O)[C@H](N)Cc1ccc(O)cc1)C(=O)N[C@@H](Cc1ccccc1)C(N)=O [Compound No. 193] | ½ |
| CC(C)C[C@H](NC(=O)CNC(=O)[C@H](Cc1ccccc1)NC(=O)[C@H](CO)NC(=O)[C@H](CC(N)=O)NC(=O)[C@H](Cc1c[nH]c2ccccc12)NC(=O)[C@H](CC(N)=O)NC(=O)[C@@H](N)Cc1ccc(O)cc1)C(=O)N[C@@H](CCCNC(=N)N)C(=O)N[C@@H](Cc1cccc(F)c1)C(N)=O [Compound No. 197] | 10 |
| CC(C)C[C@H](NC(=O)CNC(=O)[C@H](Cc1ccccc1)NC(=O)[C@H](CO)NC(=O)[C@H](CC(N)=O)NC(=O)[C@H](Cc1c[nH]c2ccccc12)NC(=O)[C@H](CC(N)=O)NC(=O)[C@@H](N)Cc1ccc(O)cc1)C(=O)N[C@@H](CCCNC(=N)N)C(=O)N[C@@H](Cc1ccc(F)c(F)c1)C(N)=O [Compound No. 198] | 10 |
| CC(C)C[C@H](NC(=O)CNC(=O)[C@H](Cc1ccccc1)NC(=O)[C@H](CO)NC(=O)[C@H](CC(N)=O)NC(=O)[C@H](Cc1c[nH]c2ccccc12)NC(=O)[C@H](CC(N)=O)NC(=O)[C@@H](N)Cc1ccc(O)cc1)C(=O)N[C@@H](CCCNC(=N)N)C(=O)N[C@@H](Cc1ccc(Cl)c(Cl)c1)C(N)=O [Compound No. 199] | 3 |
| CC(C)C[C@H](NC(=O)CNC(=O)[C@H](Cc1ccccc1)NC(=O)[C@H](CO)NC(=O)[C@H](CC(N)=O)NC(=O)[C@H](Cc1c[nH]c2ccccc12)NC(=O)[C@H](CC(N)=O)NC(=O)[C@@H](N)Cc1ccc(O)cc1)C(=O)N[C@@H](CCCNC(=N)N)C(=O)N[C@@H](Cc1cccc(C(F)(F)F)c1)C(N)=O [Compound No. 200] | 10 |
| CC(C)C[C@H](NC(=O)CNC(=O)[C@H](Cc1ccccc1)NC(=O)[C@H](CO)NC(=O)[C@H](CC(N)=O)NC(=O)[C@H](Cc1c[nH]c2ccccc12)NC(=O)[C@H](CC(N)=O)NC(=O)[C@@H](N)Cc1ccc(O)cc1)C(=O)N[C@@H](CCCNC(=N)N)C(=O)N[C@@H](Cc1ccc2ccccc2n1)C(N)=O [Compound No. 201] (H-YNWNSFGLR[X8]-NH2) | 1 |
| CNC(=N)NCCC[C@H](NC(=O)[C@H](CC(C)C)NC(=O)CNC(=O)[C@H](CC1CCCCC1)NC(=O)[C@H](CO)NC(=O)[C@H](CC(N)=O)NC(=O)[C@H](Cc1c[nH]c2ccccc12)NC(=O)[C@H](CC(N)=O)NC(=O)[C@H](N)Cc1ccc(O)cc1)C(=O)N[C@@H](Cc1ccccc1)C(N)=O [Compound No. 203, D-Tyr-Asn-Trp-Asn-Ser-Cha-Gly-Leu-Arg(Me)-Phe-NH2] (H-[dY]NWNS[Cha]GL[Arg(Me)]F-NH2) | 10 |
| CNC(=N)NCCC[C@H](NC(=O)[C@H](CC(C)C)NC(=O)[C@H](C)NC(=O)[C@H](Cc1ccccc1)NC(=O)[C@H](CO)NC(=O)[C@H](CC(N)=O)NC(=O)[C@H](Cc1c[nH]c2ccccc12)NC(=O)[C@H](CC(N)=O)NC(=O)[C@H](N)Cc1ccc(O)cc1)C(=O)N[C@@H](Cc1ccccc1)C(N)=O [Compound No. 204] (H-[dY]NWNSFAL[Arg(Me)]F-NH2) | 5 |
| CNC(=N)NCCC[C@H](NC(=O)[C@H](CC(C)C)NC(=O)CNC(=O)[C@H](Cc1ccccc1)NC(=O)[C@H](CO)NC(=O)[C@H](CC(N)=O)NC(=O)[C@@H](NC(=O)[C@H](CC(N)=O)NC(=O)[C@H](N)Cc1ccc(O)cc1)[C@@H](C)O)C(=O)N[C@@H](Cc1ccccc1)C(N)=O [Compound No. 205] (H-[dY]NTNSFGL[Arg(Me)]F-NH2) | 10 |
